For 86 molecules, melting point results are on record in a melting point compilation (Tetko et al.; mined from patent text by program, amines drawn as free bases though some values may be those of a salt).

Molecule `O=P(O)(O)C(F)(F)c1ccc(CN(c2ccc(Cl)c(Cl)c2)c2nnc(-c3cccc(Oc4cccc(-c5nnn[nH]5)c4)c3)s2)cc1Br` gave a melting point of 232 to 235 °C.
As for `Cc1c(C)c2c(c(C)c1NC(=O)CC(C)(C)C)C(C)(c1ccc(C(C)C)cc1)CO2` (stereo unspecified), the figure is 194 to 195 °C; as for `CN(C)c1ccc(NC(=O)N(C[C@H]2CCC[C@H](CN(C(=O)Nc3ccc(N(C)C)cc3)C3CCCCC3)C2)C2CCCCC2)cc1` (relative stereo), 145 to 146 °C; as for `Cc1cc2cnnc(Cl)c2n1Cc1ccccc1`, 152 to 156 °C.
As for `COc1cccc(-c2nc3n(n2)Cc2ccc(OC)cc2-3)c1`, the figure is 136 to 138 °C; as for `Cc1[nH]nc(Oc2ncc(C(F)(F)F)cc2Cl)c1C`, 102 to 103 °C.
In the case of `Nc1ncnc2c1c(-c1ccc(Oc3ccccc3)cc1)c(Br)n2C1CCCC1`, the melting point is 162 °C.
In turn, `CNC(=O)c1cc2c(Oc3ccc(COCCOC)cc3)cncc2s1` yielded a melting point of 133 to 134 °C.
As for `CCCn1cc(Cc2ccc(C(=O)NS(=O)(=O)c3ccccc3C)cc2OC)c2cc(CCNC(=O)N(C)C)ccc21`, the figure is 115 to 121 °C.
As for `Cc1c(C)c2c(c(C)c1O)SC(CCCI)O2` (stereo unspecified), the figure is 72 to 75 °C; as for `COc1c(Cl)ccc(-c2cc(N)c(Cl)c(C(=O)N3CCCO3)n2)c1F`, 204 to 207 °C; as for `O=C(Nc1ccc2cc(CN3CCC(CCO)CC3)cnc2c1)c1ccc(-c2ccc(F)cc2)cc1`, 193 to 196 °C.
With `COc1cc(C(C)C#Cc2c(C)nc(N)nc2N)cc(OC)c1OC` (stereo unspecified) the figure was 191 to 193 °C.
Regarding `CCCCn1c(=O)c2[nH]c(/C=C/c3cc(OC)c(OC)c(OC)c3)nc2n(CCCC)c1=O`, the melting point is 206 to 207 °C.
As to `CCc1cc(O)nc(C)n1`, the melting point is 118 to 119 °C.
As for `CCN1CCN(c2ccnc3c(NC(=O)c4c(Cl)cccc4Cl)cccc23)C1=O`, the figure is 249 to 253 °C; as for `COCc1c(-c2ccncc2)[nH]c(-c2ccncc2)c1C(=O)OC`, 97 to 99 °C; as for `C=C1CC1(c1ccc(OC)cc1)c1ccc(OC)cc1`, 31 to 32 °C.
The molecule `CCn1ncnc1COc1nn2c(-c3ccccc3F)nncc2c1C(C)(C)C` showed a melting point of 105 °C.
With `C=CCOC(=O)C1=C(C)NC(C)=C(C(=O)OC(C)C)C1c1cccc([N+](=O)[O-])c1` (stereo unspecified) the figure was 96 to 97 °C; with `COc1cccc([C@H]2O[C@H](CC(=O)NS(=O)(=O)CCCO)C(=O)N(CC(C)(C)CO)c3ccc(Cl)cc32)c1OC`, 133 to 135 °C.
As for `Nc1nc(N)c(-c2cc(Cl)ccc2Cl)c(C(F)(F)F)n1`, the figure is 215 to 217 °C.
Turning to `CCCCOc1c(CNC(=O)OC(C)(C)C)n(CC(C)C)c(=O)c2ccc(/C=C/c3cscn3)cc12`, the melting point was 141 to 142 °C.
With `CN1CC(O)=C(C(=O)Nc2ccccn2)N(C)S1(=O)=O`, the melting point was 185 °C.
With `CCOc1cc(-n2nc(C(=O)O)cc2-c2ccc(-c3ccco3)cc2)ccc1S(C)(=O)=O` the figure was 256 to 257 °C; with `COC(=O)c1cc(OC)c(N(C)C)c(OC)c1`, 71 to 72 °C.
`CCNC(=O)NC(=S)N1N=C(c2ccc([N+](=O)[O-])cc2)c2cc3c(cc2CC1C)OCO3` (stereo unspecified) gave a melting point of 176 to 177 °C.
With `COC(=O)CCc1cnoc1-c1ccc(Cl)c(Cl)c1` the figure was 74 to 75 °C; with `CCN1C(=O)CCCc2c1ccc(Nc1ncc(Cl)c(Nc3ccccc3-n3cccn3)n1)c2OC`, 183 to 185 °C; with `CCC(CC)c1ccc(Cl)c2nc3n(c12)CCCCN3c1c(C)cc(C)cc1OC`, 196 to 198 °C.
With `CCCC(=O)Nc1nc(=O)n(C2OC(C)C(O)C2O)cc1F` (stereo unspecified) the figure was 156 to 157 °C; with `COc1cc(C(=O)N2CCC(CCOS(C)(=O)=O)(c3ccc(Cl)c(Cl)c3)C2)cc(OC)c1OC` (stereo unspecified), 64 to 66 °C; with `O=C1c2ccccc2N(Cc2ccccc2)C2=NCCN12`, 203 to 205 °C.
With `CCCCCCCCCCCCn1nnc(CC(=O)O)n1` the figure was 70 to 73 °C; with `O=C(NN=Cc1ccnc2ccccc12)c1ccc(Cl)cc1`, 233 °C; with `O=C1c2ccc(OCCO)cc2C(=O)c2cc3ccccc3cc21`, 209 °C.
`OCCCNc1nnc(NCCCO)c2cc3ccccc3cc12` came in with a melting point of 225 to 228 °C.
As for `CC(CCCC1(C(=O)NCC(F)(F)F)c2ccccc2-c2ccccc21)N1CCC(NC(=O)OC(C)(C)C)CC1` (stereo unspecified), the figure is 58 to 60 °C; as for `Cc1ccc2c(n1)CC(c1ccccc1C)CC2=O` (stereo unspecified), 76 to 77 °C; as for `O=C(OCc1ccccc1)c1cccc(OCc2ccccc2)c1[N+](=O)[O-]`, 81.7 to 84.7 °C.
In the case of `O=C(O)c1ccc(-c2nc(-c3ccc(Oc4ccccc4)cc3)no2)cc1`, the melting point was 278 to 279 °C.
On to `O=C(c1ccc([N+](=O)[O-])cc1)N1CCC[C@@H]2CCCC[C@H]21` (relative stereo), for which the melting point lay within 84 to 87 °C.
`Cc1cc2c(c(O)c1O)C(=O)c1c(O)cccc1C2=O`: the melting point lay within 239 to 240 °C.
With `CC1=C(C)C(=O)N(CCN(C)C)C1=O` the figure was 9 °C.
With `C/C(=C\c1ccc(C(=O)OCc2ccccc2)cc1)c1ccc2c(c1)C(C)(C)CCC2(C)C` the figure was 113 to 114 °C.
With `CC(=O)NC[C@H]1CN(c2ccc(N3CCC(Cc4noc(C)n4)CC3)c(F)c2)C(=O)O1` the figure was 136 to 138 °C; with `O=C(O)c1ccc(Cc2ccccc2)[nH]1`, 130 to 134 °C.
Molecule `CCOC(=O)c1cc(C(=O)C(C)(C)Br)c(=O)[nH]c1C(=O)OCC` registered a melting point of 124 to 126 °C.
In the case of `Oc1ccc(Oc2ncc(C(F)(F)F)cc2F)cc1`, the melting point was 97 °C.
With `Cc1cnc(N2CCN(CC[C@H]3CC[C@H](NC(=O)C4CCOCC4)CC3)CC2)c2c1OCC2`, the melting point was 224 °C.
Molecule `C=Cc1c(NCc2ccco2)nc(C2CC2)nc1C(=O)OC` registered a melting point of 85 to 86 °C.
`CCOC(=O)NC(=S)Nc1ccsc1C(=O)OC` gave a melting point of 165 to 167 °C.
In turn, `O=C(O)CCNC(=O)C(=Cc1ccc(Oc2ccccc2)cc1)CS` came in with a melting point of 108 °C.
In turn, `C1=CC2=NCCC3CCOC23C=C1` (stereo unspecified) gave a melting point of 170 to 171 °C.
`CC(=O)O[C@H]1CCNC1=O` returned a melting point of 85.5 to 87 °C.
As for `CC(C)C(=O)OC[C@@]1(N=[N+]=[N-])O[C@@H](n2ccc(N)nc2=O)[C@@H](OC(=O)C(C)C)[C@@H]1OC(=O)C(C)C`, the figure is 167 to 169 °C; as for `COc1ccccc1-n1c(-c2sc(Nc3ccccc3)nc2-c2ccccc2)nc2ccccc2c1=O`, 224 to 225 °C; as for `CCCCCCCCCCCCCCCCCCOc1cc(N)cc(OCCCOc2ccccc2)c1`, 74 to 76 °C.
Molecule `O=c1[nH]c2ccccc2n1-c1cc(Cl)ccc1O` gave a melting point of 248 to 250 °C.
As to `CC(C)NC(=O)N1C2=NC(C)(C)N(C(C)C)C(=O)N2c2ccccc21`, the melting point was 80 to 89 °C.
With `O=C(c1cccs1)c1cnn2c(-c3cccc(-c4cc[nH]n4)c3)ccnc12` the figure was 129 °C; with `COCc1c(C)c(C(C)(C)C)cc(C(C)(C)C)c1O`, 70 °C; with `COc1ccc(-c2coc3cc(OC(C)C)ccc3c2=O)cc1`, 245 to 246 °C.
As for `COc1cc(C(=O)C=Cc2ccccn2)cc(OC)c1OC`, the figure is 94 to 95 °C; as for `COC(=O)c1cc(N)c(NC(C)=O)c(Br)c1O`, 217 to 219 °C; as for `COc1cc2c(cc1OC)C(C(CO)CO)NCC2` (stereo unspecified), 140 °C.
With `COC(=O)CCCCCc1nn(-c2ccc(F)cc2)c2c1CCC2` the figure was 39 to 40 °C; with `COc1ccc(NC(=O)c2ccc(F)c(F)c2)cc1NS(=O)(=O)c1ccc([N+](=O)[O-])cc1`, 231 to 249 °C; with `C=C(Cn1cc[nH]c1=O)c1ccc(OC)c(OC2CCCC2)c1`, 110 °C.
Turning to `CCN1c2ncc(COc3ccncc3)cc2C(=O)N(C)c2ccc(Cl)nc21`, the melting point lay within 169 to 170 °C.
With `CSC(=Nc1ccccc1C(=O)NC(C)C)NC(=O)c1ccccc1`, the melting point lay within 117 to 120 °C.
In the case of `NS(=O)(=O)c1ccc(-c2c(-c3ccccc3)noc2COCCO)cc1`, the melting point was 110 to 121 °C.
With `CCOC(=O)Cc1c(C)nc(SCc2ccc(OC)cc2)n1C` the figure was 158 to 160 °C; with `COc1cccc(C#Cc2nc(C)ccc2N)c1`, 165 to 166 °C.
`CCSC(=S)N1C(CO)Cc2c([nH]c3ccccc23)C1CC` (stereo unspecified): the melting point was in the range of 82 to 84 °C.
With `CC=C1CC1C(=C1C(=O)OC(=O)C1c1cc(C)n(-c2ccccc2)c1C)C1CC1` (stereo unspecified) the figure was 145 °C.
Molecule `CCOCc1nc2c(N)nc3cc(-n4ccnc4)cnc3c2n1CC(C)C` registered a melting point of 175 to 176 °C.
With `O=C(Nc1ccn(C(=O)c2ccccc2)c(=O)n1)c1ccccc1` the figure was 215 to 216 °C.
With `COc1c(C)c(OC(=O)c2c(C)c(C)c(OCCCOc3ccc(C(=O)O)cc3)c(C)c2OC)c(C)c(C)c1C(N)=O` the figure was 267 to 268 °C.
As for `Cc1cc(=O)[nH]c2cc(OCCCN3CCN(C(c4ccccc4)c4ccccc4)CC3)ccc12`, the figure is 208 to 210 °C; as for `O=C(NC(=O)N1CCC(Cc2ccccc2)CC1)c1ccc(O)cc1`, 95 °C.
In turn, `Cc1ncc(CO)n1-c1ccc([N+](=O)[O-])cc1C(=O)c1ccccc1F` came in with a melting point of 188 to 192 °C.
`CN(c1cc(N2C(=O)C3CC(Cl)CN3C2=O)c(F)cc1Cl)S(=O)(=O)CCl` (stereo unspecified) showed a melting point of 119 to 124 °C.
With `N#Cc1cccc(NC(=O)NC2N=C(CN3CCOCC3)c3ccccc3NC2=O)c1` (stereo unspecified) the figure was 249 to 250 °C.
With `CC(=O)N1C(=O)N(c2cc(Cl)cc(Cl)c2)C(=O)[C@]12CNC[C@H]2c1ccc(C#N)cc1` (relative stereo) the figure was 125 °C; with `O=c1ccoc2c3c(ccc12)OCC(CO)O3` (stereo unspecified), 125 °C.
